The record followed here is patent US12059422B2 (MEI Pharma, Inc., priority 2011, dated 2024).

The target of one assay is mTOR (Homo sapiens, UniProt P42345). The experiment in a line: mTOR inhibition (Table 1). Type of assay: biochemical. The following applies: Table 1, no method described.
The target of a further assay is T1, PI3Kδ (Homo sapiens, UniProt O00329).
T1 construct: endogenous in cells; host or cells: Raji (ATCC #CCL-86)
The experiment in a line: ELISA assay for PI3Kδ: sandwich ELISA, phosphorylation of AKT (Thr308) in Raji cells. Type of assay: cell-based. The following applies: for IC50: cellular, pAKT (Thr308), Raji cells, anti-Human IgM stimulation, read-out: IC50 p110δ; for α/δ ratio / β/δ ratio / γ/δ ratio: ratio of cellular IC50 values, Table 2. The essentials: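 Raji cells, serum-starved 2 hrs, treated with compound (10 concentrations) for 2 hrs at 37° C, then stimulated 30 min with anti-human IgM. Lysates analysed by sandwich ELISA for pAKT Thr308 and total AKT with luminescent read-out. IC50 from curve fitting.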

A further assay deals with T2, PI3K alpha (Homo sapiens, UniProt P42336).
T2 construct: purchased Invitrogen Corp., Carlsbad, CA, USA
Nature of the assay: Luciferase-based luminescence assay (KinaseGlo), PI3K alpha enzymatic activity. Type of assay: biochemical. To be noted: inhibition of enzymatic activity, 25 μM ATP, read-out: IC50 p110α. In a few lines:
(§1)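 KinaseGlo luminescence measured ATP remaining after PIP2 (50 μM) phosphorylation with 25 μM ATP in HEPES pH 7.5 buffer with CHAPS and DTT. Final enzyme was 1.65 nM alpha (1 h reaction) or 6.86 nM delta (2 h reaction). IC50 was curve-fitted from 10 concentrations.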

Another assay has as its target T3, PI3K delta (Homo sapiens, UniProt O00329).
T3 construct: purchased Millipore, Billerica, MA, USA
Nature of the assay: Luciferase-based luminescence assay (KinaseGlo), PI3K delta enzymatic activity. To be noted: for IC50: inhibition of enzymatic activity, KinaseGlo, 25 μM ATP, read-out: IC50 p110δ; for α/δ ratio: ratio of enzymatic IC50 against PI3Kα over IC50 against PI3Kδ; for β/δ ratio / γ/δ ratio: ratio of enzymatic IC50 values, Table 1. Type of assay: biochemical. In a few lines:
as §1

T2 sequence (P42336 whole entry, species assumed): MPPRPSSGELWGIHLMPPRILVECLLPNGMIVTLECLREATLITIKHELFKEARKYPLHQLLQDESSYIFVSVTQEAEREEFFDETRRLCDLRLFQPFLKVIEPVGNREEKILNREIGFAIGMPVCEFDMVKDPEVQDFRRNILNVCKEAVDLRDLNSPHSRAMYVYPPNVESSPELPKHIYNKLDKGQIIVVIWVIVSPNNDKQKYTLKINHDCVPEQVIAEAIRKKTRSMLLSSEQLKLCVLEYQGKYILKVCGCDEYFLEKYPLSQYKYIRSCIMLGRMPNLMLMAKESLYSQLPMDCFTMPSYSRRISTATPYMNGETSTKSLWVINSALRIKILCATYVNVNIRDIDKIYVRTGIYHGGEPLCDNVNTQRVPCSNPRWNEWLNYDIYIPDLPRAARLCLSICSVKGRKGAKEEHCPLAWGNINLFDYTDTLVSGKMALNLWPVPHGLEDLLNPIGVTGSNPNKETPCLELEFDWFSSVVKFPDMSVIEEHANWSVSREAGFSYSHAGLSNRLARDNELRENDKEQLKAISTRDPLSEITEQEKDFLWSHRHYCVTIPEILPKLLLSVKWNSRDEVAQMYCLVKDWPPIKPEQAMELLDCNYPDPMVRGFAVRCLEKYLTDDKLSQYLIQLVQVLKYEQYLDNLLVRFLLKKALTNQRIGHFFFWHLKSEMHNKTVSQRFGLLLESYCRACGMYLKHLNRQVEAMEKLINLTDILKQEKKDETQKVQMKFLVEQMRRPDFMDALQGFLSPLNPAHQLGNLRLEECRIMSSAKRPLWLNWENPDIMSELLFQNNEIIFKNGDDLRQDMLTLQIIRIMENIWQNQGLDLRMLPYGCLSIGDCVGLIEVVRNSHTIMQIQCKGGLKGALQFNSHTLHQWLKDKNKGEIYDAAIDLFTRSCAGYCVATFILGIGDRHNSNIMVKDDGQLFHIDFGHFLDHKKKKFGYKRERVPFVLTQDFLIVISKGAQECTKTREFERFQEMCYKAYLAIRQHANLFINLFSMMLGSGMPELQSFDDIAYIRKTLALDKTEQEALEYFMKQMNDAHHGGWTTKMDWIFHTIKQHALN
T2 sequence (P27986 whole entry partner, species assumed): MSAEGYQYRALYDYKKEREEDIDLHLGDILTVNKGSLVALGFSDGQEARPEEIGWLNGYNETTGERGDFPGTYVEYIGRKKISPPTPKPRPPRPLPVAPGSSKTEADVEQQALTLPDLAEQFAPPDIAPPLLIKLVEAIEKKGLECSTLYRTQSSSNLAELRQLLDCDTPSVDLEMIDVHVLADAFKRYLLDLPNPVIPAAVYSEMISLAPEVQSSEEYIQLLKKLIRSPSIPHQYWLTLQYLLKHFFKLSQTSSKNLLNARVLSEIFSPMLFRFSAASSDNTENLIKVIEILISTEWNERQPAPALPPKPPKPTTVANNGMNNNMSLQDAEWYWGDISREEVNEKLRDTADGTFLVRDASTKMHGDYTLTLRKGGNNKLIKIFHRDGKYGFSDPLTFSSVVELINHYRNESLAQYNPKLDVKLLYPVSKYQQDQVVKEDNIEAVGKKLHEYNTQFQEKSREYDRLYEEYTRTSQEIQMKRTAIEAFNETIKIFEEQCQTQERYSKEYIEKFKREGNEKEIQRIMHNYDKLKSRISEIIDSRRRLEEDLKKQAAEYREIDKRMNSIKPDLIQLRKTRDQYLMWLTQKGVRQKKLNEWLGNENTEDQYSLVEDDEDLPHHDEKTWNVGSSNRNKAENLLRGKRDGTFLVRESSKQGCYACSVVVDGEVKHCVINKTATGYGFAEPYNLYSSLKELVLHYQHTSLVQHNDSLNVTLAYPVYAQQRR
T3 sequence (O00329 whole entry, species assumed): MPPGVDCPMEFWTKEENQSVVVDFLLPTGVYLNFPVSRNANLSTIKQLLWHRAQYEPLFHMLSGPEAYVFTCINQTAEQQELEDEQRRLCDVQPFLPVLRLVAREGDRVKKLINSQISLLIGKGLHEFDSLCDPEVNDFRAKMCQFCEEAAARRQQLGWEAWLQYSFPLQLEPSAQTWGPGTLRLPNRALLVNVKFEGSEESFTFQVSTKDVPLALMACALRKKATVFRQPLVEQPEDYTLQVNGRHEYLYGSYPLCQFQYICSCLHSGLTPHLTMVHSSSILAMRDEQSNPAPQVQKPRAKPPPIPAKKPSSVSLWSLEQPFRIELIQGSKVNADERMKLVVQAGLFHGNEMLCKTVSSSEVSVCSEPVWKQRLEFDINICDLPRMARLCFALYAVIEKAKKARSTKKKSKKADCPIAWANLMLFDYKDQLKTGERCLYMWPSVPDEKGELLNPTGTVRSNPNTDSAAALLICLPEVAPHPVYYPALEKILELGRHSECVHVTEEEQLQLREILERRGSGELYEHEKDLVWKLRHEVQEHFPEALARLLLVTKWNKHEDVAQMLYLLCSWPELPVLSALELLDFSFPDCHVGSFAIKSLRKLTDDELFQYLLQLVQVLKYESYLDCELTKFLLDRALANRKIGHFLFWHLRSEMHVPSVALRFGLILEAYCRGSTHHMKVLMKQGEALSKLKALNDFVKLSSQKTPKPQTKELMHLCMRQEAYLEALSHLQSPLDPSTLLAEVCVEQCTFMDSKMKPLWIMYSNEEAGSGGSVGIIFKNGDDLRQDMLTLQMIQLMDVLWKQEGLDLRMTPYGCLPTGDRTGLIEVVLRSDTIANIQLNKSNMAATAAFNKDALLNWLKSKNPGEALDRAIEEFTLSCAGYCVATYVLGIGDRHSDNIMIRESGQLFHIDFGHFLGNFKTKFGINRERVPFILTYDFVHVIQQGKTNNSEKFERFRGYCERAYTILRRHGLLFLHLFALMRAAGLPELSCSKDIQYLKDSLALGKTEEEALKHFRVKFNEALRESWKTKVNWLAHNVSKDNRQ
T3 sequence (P27986 whole entry partner, species assumed): as the sequence (P27986 whole entry partner, species assumed) above
T1 sequence (O00329 whole entry): as the sequence (O00329 whole entry, species assumed) above
T1 sequence (P27986 whole entry partner): as the sequence (P27986 whole entry partner, species assumed) above

In turn, `CC(C)(Cc1c(F)cccc1F)Nc1nc(N2CCOCC2)nc(-n2c(C(F)F)nc3ccccc32)n1` [Compound A52, 4-(2-(difluoromethyl)-1H-benzo[d]imidazol-1-yl)-N-(1-(2,6-difluorophenyl)-2-methylpropan-2-yl)-6-morpholino-1,3,5-triazin-2-amine] showed an IC50 against mTOR greater than 0.5 µM. At PI3Kδ, the IC50 was no more than 0.1 µM, the α/δ ratio entry is on record as “A’”, the β/δ ratio entry is “D’” and the γ/δ ratio result is reported as “A’”. The half-maximal inhibitory concentration (IC50) at PI3K alpha was greater than 0.5 µM. For the same compound, at PI3K delta, the IC50 is no more than 0.1 µM, the α/δ ratio result is “C’”, the β/δ ratio entry is recorded as “B’” and the γ/δ ratio entry is listed as “D’”.

Consider `CC(C)(Cc1ccccc1-c1ccccc1F)Nc1nc(N2CCOCC2)nc(-n2c(C(F)F)nc3ccccc32)n1` [Compound A59, 4-(2-(difluoromethyl)-1H-benzo[d]imidazol-1-yl)-N-(1-(2′-fluorobiphenyl-2-yl)-2-methylpropan-2-yl)-6-morpholino-1,3,5-triazin-2-amine], for which, at mTOR, the IC50 was greater than 0.5 µM. At PI3Kδ, the IC50 was no more than 0.1 µM, the α/δ ratio entry was “A’”, the β/δ ratio entry is reported as “A’” and the γ/δ ratio entry is listed as “A’”. Besides, at PI3K alpha, the IC50 is greater than 0.5 µM. Besides, at PI3K delta, the IC50 was no more than 0.1 µM, the α/δ ratio result is on record as “A’”, the β/δ ratio result is given as “A’” and the γ/δ ratio entry was “A’”.

Regarding `Cc1ccccc1-c1ccccc1CC(C)(C)Nc1nc(N2CCOCC2)nc(-n2c(C(F)F)nc3ccccc32)n1` [Compound A60, 4-(2-(difluoromethyl)-1H-benzo[d]imidazol-1-yl)-N-(2-methyl-1-(2′-methylbiphenyl-2-yl)propan-2-yl)-6-morpholino-1,3,5-triazin-2-amine], at mTOR, the IC50 was greater than 0.5 µM. Also, at PI3Kδ, the half-inhibitory concentration (IC50) is no more than 0.1 µM, the α/δ ratio result is given as “A’”, the β/δ ratio result is on record as “A’” and the γ/δ ratio entry is recorded as “A’”. Moreover, on PI3K alpha, the IC50 was greater than 0.5 µM. At PI3K delta, the IC50 is no more than 0.1 µM, the α/δ ratio result was “A’”, the β/δ ratio entry is recorded as “D’” and the γ/δ ratio entry is on record as “A’”.

For the compound `CC(C)(Cc1ccccc1-c1ccccc1Cl)Nc1nc(N2CCOCC2)nc(-n2c(C(F)F)nc3ccccc32)n1` [Compound A61, 4-(2-(difluoromethyl)-1H-benzo[d]imidazol-1-yl)-N-(1-(6′-chlorobiphenyl-2-yl)-2-methylpropan-2-yl)-6-morpholino-1,3,5-triazin-2-amine], the IC50 was greater than 0.5 µM against mTOR, no more than 0.1 µM on PI3Kδ, greater than 0.5 µM on PI3K alpha and no more than 0.1 µM at PI3K delta. The α/δ ratio entry at PI3Kδ and on PI3K delta was “A’” throughout. Also, the β/δ ratio entry is “A’” on PI3Kδ and “D’” at PI3K delta. In addition, the γ/δ ratio result at PI3Kδ and on PI3K delta was “A’” each time.

As to `CC(C)(Cc1ccccc1-c1cccnc1F)Nc1nc(N2CCOCC2)nc(-n2c(C(F)F)nc3ccccc32)n1` [Compound A62], the IC50 was greater than 0.5 µM on mTOR, no more than 0.1 µM on PI3Kδ, greater than 0.5 µM at PI3K alpha and no more than 0.1 µM at PI3K delta. The α/δ ratio entry at PI3Kδ and at PI3K delta was “A’” each time. The β/δ ratio entry at PI3Kδ and on PI3K delta was “A’” each time. Moreover, the γ/δ ratio entry at PI3Kδ and on PI3K delta was “A’” throughout.

For `CC(C)(Cc1ccccc1-c1cncnc1)Nc1nc(N2CCOCC2)nc(-n2c(C(F)F)nc3ccccc32)n1` [Compound A63, 4-(2-(difluoromethyl)-1H-benzo[d]imidazol-1-yl)-N-(2-methyl-1-(2-(pyrimidin-5-yl)phenyl)propan-2-yl)-6-morpholino-1,3,5-triazin-2-amine], the IC50 at mTOR is greater than 0.5 µM. At PI3Kδ, the 50% inhibitory concentration (IC50) was no more than 0.1 µM, the α/δ ratio entry is “A’”, the β/δ ratio result was “A’” and the γ/δ ratio result is recorded as “A’”. Further, the half-maximal inhibitory concentration (IC50) at PI3K alpha was in the range of 0.2 to 0.5 µM. Further, at PI3K delta, the IC50 was no more than 0.1 µM, the α/δ ratio entry is “A’”, the β/δ ratio result is “A’” and the γ/δ ratio result was “A’”.

On to `CN1CCN(c2cc(-c3ccccc3CC(C)(C)Nc3nc(N4CCOCC4)nc(-n4c(C(F)F)nc5ccccc54)n3)ccn2)CC1` [Compound A64, 4-(2-(difluoromethyl)-1H-benzo[d]imidazol-1-yl)-N-(2-methyl-1-(2-(2-(4-methylpiperazin-1-yl)pyridin-4-yl)phenyl)propan-2-yl)-6-morpholino-1,3,5-triazin-2-amine], for which the IC50 at mTOR was greater than 0.5 µM; at PI3Kδ, no more than 0.1 µM; on PI3K alpha, greater than 0.5 µM; on PI3K delta it was no more than 0.1 µM. The α/δ ratio result at PI3Kδ and on PI3K delta was “A’” in each case. Moreover, the values for the β/δ ratio result at PI3Kδ and on PI3K delta were “A’” and “D’”, respectively. Also, the γ/δ ratio result at PI3Kδ and at PI3K delta was “A’” in each case.

Consider `CC(C)(Cc1ccccc1-c1cccc(CN2CCOCC2)c1)Nc1nc(N2CCOCC2)nc(-n2c(C(F)F)nc3ccccc32)n1` [Compound A65, 4-(2-(difluoromethyl)-1H-benzo[d]imidazol-1-yl)-N-(2-methyl-1-(3′-(morpholinomethyl)biphenyl-2-yl)propan-2-yl)-6-morpholino-1,3,5-triazin-2-amine], for which the IC50 was greater than 0.5 µM against mTOR, no more than 0.1 µM on PI3Kδ, greater than 0.5 µM at PI3K alpha and no more than 0.1 µM on PI3K delta. In addition, the α/δ ratio result on PI3Kδ and at PI3K delta was “A’” throughout. For the same compound, the β/δ ratio entry was “B’” at PI3Kδ and “D’” on PI3K delta. The γ/δ ratio entry on PI3Kδ is recorded as “A’”; on PI3K delta it was “D’”.

For the compound `COc1cccc(-c2ccccc2CC(C)(C)Nc2nc(N3CCOCC3)nc(-n3c(C(F)F)nc4ccccc43)n2)c1` [Compound A66, 4-(2-(difluoromethyl)-1H-benzo[d]imidazol-1-yl)-N-(1-(3′-methoxybiphenyl-2-yl)-2-methylpropan-2-yl)-6-morpholino-1,3,5-triazin-2-amine], the half-inhibitory concentration (IC50) is greater than 0.5 µM at mTOR, no more than 0.1 µM at PI3Kδ, greater than 0.5 µM at PI3K alpha and no more than 0.1 µM at PI3K delta. Also, the α/δ ratio entry on PI3Kδ and on PI3K delta was “A’” in each case. The β/δ ratio entry on PI3Kδ and at PI3K delta was “A’” in each case. Moreover, the γ/δ ratio result at PI3Kδ and on PI3K delta was “A’” throughout.

Take `COc1ccc(-c2ccccc2CC(C)(C)Nc2nc(N3CCOCC3)nc(-n3c(C(F)F)nc4ccccc43)n2)cc1` [Compound A67, 4-(2-(difluoromethyl)-1H-benzo[d]imidazol-1-yl)-N-(1-(4′-methoxybiphenyl-2-yl)-2-methylpropan-2-yl)-6-morpholino-1,3,5-triazin-2-amine]: the IC50 against mTOR was greater than 0.5 µM. In addition, at PI3Kδ, the IC50 is no more than 0.1 µM, the α/δ ratio result is reported as “A’”, the β/δ ratio entry is reported as “A’” and the γ/δ ratio result is “A’”. Further, the IC50 on PI3K alpha was greater than 0.5 µM. On PI3K delta, the IC50 is no more than 0.1 µM, the α/δ ratio result was “A’”, the β/δ ratio result is given as “B’” and the γ/δ ratio entry is recorded as “A’”.

For the compound `CC(C)(Cc1ccccc1C1CCNCC1)Nc1nc(N2CCOCC2)nc(-n2c(C(F)F)nc3ccccc32)n1` [Compound A68, 4-(2-(difluoromethyl)-1H-benzo[d]imidazol-1-yl)-N-(2-methyl-1-(2-(piperidin-4-yl)phenyl)propan-2-yl)-6-morpholino-1,3,5-triazin-2-amine], the concentration for half-maximal inhibition (IC50) is greater than 0.5 µM against mTOR, no more than 0.1 µM at PI3Kδ, greater than 0.5 µM at PI3K alpha and no more than 0.1 µM on PI3K delta. Also, the α/δ ratio entry at PI3Kδ and at PI3K delta was “A’” each time. Further, the β/δ ratio result at PI3Kδ and at PI3K delta was “A’” each time. For the same compound, the γ/δ ratio entry at PI3Kδ and on PI3K delta was “A’” each time.

Compound `CCN1CCC(c2ccccc2CC(C)(C)Nc2nc(N3CCOCC3)nc(-n3c(C(F)F)nc4ccccc43)n2)CC1` [Compound A70, 4-(2-(difluoromethyl)-1H-benzo[d]imidazol-1-yl)-N-(1-(2-(1-ethylpiperidin-4-yl)phenyl)-2-methylpropan-2-yl)-6-morpholino-1,3,5-triazin-2-amine] gave an IC50 against mTOR greater than 0.5 µM. Besides, at PI3Kδ, the IC50 was no more than 0.1 µM, the α/δ ratio entry was “A’”, the β/δ ratio entry was “A’” and the γ/δ ratio result is recorded as “A’”. On PI3K alpha, the IC50 was greater than 0.5 µM. Moreover, on PI3K delta, the IC50 is no more than 0.1 µM, the α/δ ratio entry is recorded as “A’”, the β/δ ratio entry is “A’” and the γ/δ ratio entry is recorded as “A’”.
